Legend:
[1] = system: PHA-stimulated human T lymphocytes; experiment: RNA synthesis in PHA-stimulated human T lymphocytes in vitro (3H-uridine); type: cell-based; settings: for RNA synthesis, 3H-uridine c.p.m. (mean): control 3835
Method: Human T lymphocytes, incubated in vitro for 24 hours in presence of 0.5% phytohemagglutinin (PHA) and different concentrations of the tripeptides under examination, have been analyzed for RNA synthesis (cell activation) by means of 3H-uridine labelling.

[2] = system: PHA-stimulated human T lymphocytes; experiment: DNA synthesis in PHA-stimulated human T lymphocytes in vitro (3H-thymidine); type: cell-based; settings: for DNA synthesis, 3H-thymidine c.p.m. (mean): control 22642
Method: Human T lymphocytes, incubated in vitro for 72 hours in presence of 0.5% PHA and different concentrations of the tripeptides under examination, have been analyzed for DNA synthesis (cell proliferation) by means of 3H-thymidine labelling.

N=C(N)NCCC[C@H](N)C(=O)NCC(=O)N[C@H](CC(=O)O)C(=O)O [ARG--GLY--D--ASP, L-Arginyl-glycyl-D-Aspartic acid]
PHA-induced human T lymphocyte activation (RNA synthesis) ([1]; 24 hours, 0.5% PHA): able to increase
RNA synthesis Δ % ([1]; peptide 0.0001 mcg/ml): -8%
RNA synthesis, 3H-uridine c.p.m. (mean) ([1]; peptide 0.0001 mcg/ml, 24 hours, 0.5% PHA): 3517 c.p.m.
RNA synthesis Δ % ([1]; peptide 0.001 mcg/ml): +8%
RNA synthesis, 3H-uridine c.p.m. (mean) ([1]; peptide 0.001 mcg/ml, 24 hours, 0.5% PHA): 4129 c.p.m.
RNA synthesis Δ % ([1]; peptide 0.01 mcg/ml): +12%
RNA synthesis, 3H-uridine c.p.m. (mean) ([1]; peptide 0.01 mcg/ml, 24 hours, 0.5% PHA): 4283 c.p.m.
RNA synthesis Δ % ([1]; peptide 0.1 mcg/ml): +25%
RNA synthesis, 3H-uridine c.p.m. (mean) ([1]; peptide 0.1 mcg/ml, 24 hours, 0.5% PHA): 4777 c.p.m.
RNA synthesis Δ % ([1]; peptide 1 mcg/ml): +22%
RNA synthesis, 3H-uridine c.p.m. (mean) ([1]; peptide 1 mcg/ml, 24 hours, 0.5% PHA): 4682 c.p.m.
RNA synthesis Δ % ([1]; peptide 10 mcg/ml): +13%
RNA synthesis, 3H-uridine c.p.m. (mean) ([1]; peptide 10 mcg/ml, 24 hours, 0.5% PHA): 4346 c.p.m.
PHA-induced human T lymphocyte proliferation (DNA synthesis) ([2]; 72 hours, 0.5% PHA): able to increase
DNA synthesis Δ % ([2]; peptide 0.0001 mcg/ml): -3%
DNA synthesis, 3H-thymidine c.p.m. (mean) ([2]; peptide 0.0001 mcg/ml, 72 hours, 0.5% PHA): 21898 c.p.m.
DNA synthesis Δ % ([2]; peptide 0.001 mcg/ml): +2%
DNA synthesis, 3H-thymidine c.p.m. (mean) ([2]; peptide 0.001 mcg/ml, 72 hours, 0.5% PHA): 23029 c.p.m.
DNA synthesis Δ % ([2]; peptide 0.01 mcg/ml): +8%
DNA synthesis, 3H-thymidine c.p.m. (mean) ([2]; peptide 0.01 mcg/ml, 72 hours, 0.5% PHA): 24551 c.p.m.
DNA synthesis Δ % ([2]; peptide 0.1 mcg/ml): +15%
DNA synthesis, 3H-thymidine c.p.m. (mean) ([2]; peptide 0.1 mcg/ml, 72 hours, 0.5% PHA): 26090 c.p.m.
DNA synthesis Δ % ([2]; peptide 1 mcg/ml): +16%
DNA synthesis, 3H-thymidine c.p.m. (mean) ([2]; peptide 1 mcg/ml, 72 hours, 0.5% PHA): 26170 c.p.m.
DNA synthesis Δ % ([2]; peptide 10 mcg/ml): +9%
DNA synthesis, 3H-thymidine c.p.m. (mean) ([2]; peptide 10 mcg/ml, 72 hours, 0.5% PHA): 24570 c.p.m.
